Bounds are passed on as bounds.

For experiment [1], the target named is T1, NaV1.5 (Homo sapiens, UniProt Q14524).
T1 construct: expressed in transfected cells; host or cells: HEK293
As to the kind of experiment: Patchliner electrophysiological in-vitro assay, NaV1.5. It counts as cell-based. The settings on record: Patchliner patch clamp, HEK293 cells. The method, then:
(§1) In vitro assays were performed in recombinant cell line that stably express a heterotrimeric protein of interest from an introduced nucleic acid encoding the alpha subunit (hNav1.7, SCN9A), the beta subunit (SCNB1) and the beta subunit (SCNB2). The cell line was engineered using Human Embryonic Kidney 293 cells (HEK293) as host background. Additional cell lines stably expressing recombinant human NaVs (e.g., NaV1.1, NaV1.2, NaV1.3, NaV1.4, NaV1.5, NaV1.6, NaV1.7 or NaV1.8) alpha subunit alone or in combination with various beta subunits in Chinese Hamster Ovary (CHO) or HEK293 cells as a host background can also be used in in vitro assays.
The recording of sodium current from stable HEK293 cell lines expressing NaV1.7 or NaV1.5 or CHO cell lines expressing NaV1.1, NaV1.2, NaV1.3, NaV1.4, NaV1.6 or NaV1.8 was done on a Patchliner® instrument, Nanion Technologies. The Patchliner® is a fully automated bench-top patch clamp platform and can record simultaneously from up to eight single cells with GΩ seals.
For patch-clamp experiments, cells were grown under standard culturing conditions in Dulbecco's Modified Eagles medium supplemented with 10% fetal bovine serum, glutamine and HEPES. Cells were harvested and kept in suspension for up to 4 hours with no significant change in quality or ability to patch. Whole cell patch clamp recordings were conducted according to Nanion's standard procedure for the Patchliner®. Experiments were conducted at room temperature.
Voltage protocols were designed to establish: 1) peak current amplitude (Imax), 2) test potential (Vmax) and 3) half-inactivation potential (V1/2) for each of the eight individual cells. To determine V1/2, a standard steady-state inactivation protocol was executed using a series of fifteen 500 ms depolarizing pre-pulses in 10 mV increments (starting at −130 mV) and immediately followed by a 10 ms test pulse to Vmax. To estimate test compound affinity to the inactivated state of sodium channel (Ki), the holding potential for each cell was set automatically to the V1/2 calculated from a steady-state inactivation data. The current was activated with the following voltage protocol: holding at V1/2 for 2-5 seconds, return to the −120 mV for 5-10 ms to relieve fast inactivation, stepping to test potential (Vmax) for 10-20 ms. This voltage protocol was repeated every 10 seconds to establish the baseline with 2-3 buffer additions followed by the test compound addition. The dose-dependent inhibition was analyzed using Nanion's Data Analysis Package.
(In general: In patch-clamp work, channel activity is measured electrically.)

Experiment [2] addresses T2, NaV1.7 (Homo sapiens, UniProt Q15858).
T2 construct: expressed in transfected cells; host or cells: HEK293
As to the kind of experiment: Patchliner electrophysiological in-vitro assay, NaV1.7. It counts as cell-based. The settings on record: Patchliner patch clamp, HEK293 cells, holding at V1/2. The method, then:
as §1
(§2) The recording of sodium current from stable HEK293 cell lines expressing NaV1.7 or NaV1.5 or CHO cell lines expressing NaV1.1, NaV1.2, NaV1.3, NaV1.4, NaV1.6 or NaV1.8 was done on a Patchliner® instrument, Nanion Technologies. […]
(§3) Voltage protocols were designed to establish: 1) peak current amplitude (Imax), 2) test potential (Vmax) and 3) half-inactivation potential (V1/2) for each of the eight individual cells. […] To estimate test compound affinity to the inactivated state of sodium channel (Ki), the holding potential for each cell was set automatically to the V1/2 calculated from a steady-state inactivation data. […] The dose-dependent inhibition was analyzed using Nanion's Data Analysis Package.

The target in experiment [3] is T3, hNaV1.7 (Homo sapiens, UniProt Q15858).
T3 construct: expressed in transfected cells; host or cells: HEK293
Briefly: FDSS membrane potential in-vitro assay. It counts as cell-based. The settings on record: HEK293 cells expressing hNaV1.7 α, β1 and β2, veratridine and scorpion venom stimulation, read-out: NaV1.7 IC50.

Experiment [4] concerns the target T4, NaV1.4 (Homo sapiens, UniProt P35499).
T4 construct: expressed in transfected cells; host or cells: CHO
Briefly: Patchliner electrophysiological in-vitro assay, NaV1.4. It is filed as cell-based. To be noted: Patchliner patch clamp, CHO cells. On the procedure:
as §1, §2, §3

The target of experiment [5] is T5, NaV1.1 (Homo sapiens, UniProt P35498).
T5 construct: expressed in transfected cells; host or cells: CHO
As to the kind of experiment: Patchliner electrophysiological in-vitro assay, NaV1.1. To be noted: Patchliner patch clamp, CHO cells. It is filed as cell-based. On the procedure: as §1, §2, §3

Experiment [6] deals with T6, NaV1.3 (Homo sapiens, UniProt Q9NY46). Briefly: Patchliner electrophysiological in-vitro assay, NaV1.3. The settings on record: Patchliner patch clamp, CHO cells; read-out: NaV 1.3 IC50. On the set-up: expressed in transfected cells; host or cells: CHO. It counts as cell-based. The method, then:
as §1, §2, §3

Experiment [7] addresses T7, NaV1.8 (Homo sapiens, UniProt Q9Y5Y9).
T7 construct: expressed in transfected cells; host or cells: CHO
As to the kind of experiment: Patchliner electrophysiological in-vitro assay, NaV1.8. It counts as cell-based. The settings on record: Patchliner patch clamp, CHO cells. The method, then:
as §1, §2, §3

For experiment [8], the target named is T6, NaV1.3. As to the kind of experiment: Assay similar to Patchliner assay using CHO or HEK293 cell lines expressing NaV1.3. It is filed as cell-based. On the set-up: expressed in transfected cells; host or cells: CHO or HEK293.
The test system of experiment [9] is streptozotocin-induced diabetic rats. Briefly: Anti-diabetic effect in rat streptozotocin-induced model for diabetes. It is filed as in vivo, Sprague-Dawley rats. To be noted: STZ diabetic rats. The method, then:
250-350 g male Sprague-Dawley rats from appropriate animal resources were used. Type I diabetes was induced by a single injection, (intraperitoneally, intravenously or intramuscularly) of 50-100 mg/kg of streptozotocin (STZ, Sigma Chemicals, St. Louis, Mo. or VWR) freshly dissolved in sodium citrate (0.01 M, pH 4.5). Sham animals were given either saline or same vehicle injection. Following a wait time of about two days, inducement of diabetes was confirmed in STZ-injected rats by measuring the plasma glucose concentrations in blood samples from the tail vein after a fast of 6 hours. The glucose level was assayed using a mini glucose monitor (kit for AlphaTRAK 2 meter, available from Abbott Laboratories). Screening for hyperglycemia in STZ-injected animals was done, with only animals with a final blood glucose level ≧300 mg/dl being selected for the study. Glucose levels in the sham animals remained normal. Other parameters (water intake, food intake, and bodyweight) were monitored before the treatment with a test compound and after the cessation of the treatment.
The baseline glucose levels, daily food and water intake and behavioral tests (von Frey, paw pressure and plantar tests) were measured for each animal once weekly for 28 weeks, and once every 2-4 weeks for an additional 28-30 weeks. At a selected week (started from week 6) for a compound test, diabetic rats were divided into two test groups: a vehicle control group and a test compound treated group (n=10 each group). A sham group (saline only without STZ i.p. injection, n=10) was added as a normal, non-diabetic control group. To minimize animal stress associated with repeated daily handling, the compound treated diabetic group of animals received the test compound (compound 49) at a daily dose of 60 mg/kg in their drinking water containing 2% PEG600 and 1% glycofurol (the test compound concentration in the drinking water was based on the individual animal's average daily water consumption as determined the pre-dosing period, which averaged 0.1-0.11 mg/ml). The vehicle control group received drinking water containing 2% PEG600 and 1% glycofurol without the test compound. The treatment continued for 9 days. On day 10 drinking water with test compound or vehicle (2% PEG600 and 1% glycofurol) was replaced with plain drinking water in all groups. The monitoring of glucose levels, food and water intake as well as behavior tests continued for additional 28-30 weeks.

Where [10] appears, read: 60 mg/kg/day in drinking water for 9 days, after treatment stopped, continues through week 52.

T1 sequence (Q14524 whole entry): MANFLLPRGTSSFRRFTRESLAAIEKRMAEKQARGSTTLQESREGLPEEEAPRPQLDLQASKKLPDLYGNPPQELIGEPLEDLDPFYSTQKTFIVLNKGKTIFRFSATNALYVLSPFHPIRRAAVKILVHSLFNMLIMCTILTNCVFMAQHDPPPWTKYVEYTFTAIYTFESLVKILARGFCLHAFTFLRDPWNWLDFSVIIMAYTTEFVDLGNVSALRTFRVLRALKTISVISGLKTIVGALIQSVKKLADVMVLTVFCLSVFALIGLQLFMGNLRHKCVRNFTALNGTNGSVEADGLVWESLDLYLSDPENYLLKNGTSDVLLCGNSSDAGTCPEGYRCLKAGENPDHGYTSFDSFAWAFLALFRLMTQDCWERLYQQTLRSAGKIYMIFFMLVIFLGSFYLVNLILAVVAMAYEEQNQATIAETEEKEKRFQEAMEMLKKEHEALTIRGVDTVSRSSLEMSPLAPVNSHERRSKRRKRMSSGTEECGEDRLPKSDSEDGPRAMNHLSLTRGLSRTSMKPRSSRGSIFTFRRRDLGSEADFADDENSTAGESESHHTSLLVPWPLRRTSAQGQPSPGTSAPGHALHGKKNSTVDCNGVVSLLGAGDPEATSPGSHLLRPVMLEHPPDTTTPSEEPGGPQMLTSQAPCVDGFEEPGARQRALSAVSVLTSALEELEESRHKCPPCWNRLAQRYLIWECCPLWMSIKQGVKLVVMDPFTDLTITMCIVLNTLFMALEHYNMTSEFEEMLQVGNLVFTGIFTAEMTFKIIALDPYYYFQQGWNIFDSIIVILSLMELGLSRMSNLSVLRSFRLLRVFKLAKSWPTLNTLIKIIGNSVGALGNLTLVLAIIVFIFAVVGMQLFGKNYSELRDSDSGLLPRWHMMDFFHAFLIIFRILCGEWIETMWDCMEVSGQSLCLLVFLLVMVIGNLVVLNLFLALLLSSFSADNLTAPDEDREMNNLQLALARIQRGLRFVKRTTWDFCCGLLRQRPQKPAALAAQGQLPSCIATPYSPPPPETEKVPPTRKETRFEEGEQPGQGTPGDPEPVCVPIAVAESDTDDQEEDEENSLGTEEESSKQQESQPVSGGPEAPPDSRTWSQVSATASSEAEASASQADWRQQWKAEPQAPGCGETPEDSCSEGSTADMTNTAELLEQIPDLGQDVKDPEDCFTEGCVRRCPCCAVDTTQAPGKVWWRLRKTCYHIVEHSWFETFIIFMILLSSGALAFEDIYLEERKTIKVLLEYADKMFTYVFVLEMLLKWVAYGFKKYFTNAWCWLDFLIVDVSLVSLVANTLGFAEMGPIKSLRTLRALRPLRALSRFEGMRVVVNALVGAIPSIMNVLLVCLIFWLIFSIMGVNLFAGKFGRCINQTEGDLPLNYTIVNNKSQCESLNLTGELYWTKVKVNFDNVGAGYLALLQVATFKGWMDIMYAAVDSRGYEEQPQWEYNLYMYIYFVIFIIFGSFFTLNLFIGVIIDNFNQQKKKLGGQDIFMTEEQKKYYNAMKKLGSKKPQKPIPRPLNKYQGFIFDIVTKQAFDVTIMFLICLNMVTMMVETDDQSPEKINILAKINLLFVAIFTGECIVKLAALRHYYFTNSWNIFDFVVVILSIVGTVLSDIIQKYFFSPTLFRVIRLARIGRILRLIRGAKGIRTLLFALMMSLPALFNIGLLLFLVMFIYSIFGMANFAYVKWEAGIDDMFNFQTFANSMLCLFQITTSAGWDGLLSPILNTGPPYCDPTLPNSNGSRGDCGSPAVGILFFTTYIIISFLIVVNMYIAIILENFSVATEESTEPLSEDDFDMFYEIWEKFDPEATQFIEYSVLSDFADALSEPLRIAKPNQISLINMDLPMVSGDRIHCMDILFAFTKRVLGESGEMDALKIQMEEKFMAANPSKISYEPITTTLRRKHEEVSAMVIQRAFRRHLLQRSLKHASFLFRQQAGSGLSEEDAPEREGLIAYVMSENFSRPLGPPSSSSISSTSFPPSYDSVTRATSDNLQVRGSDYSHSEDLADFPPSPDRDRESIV
T4 sequence (P35499 whole entry): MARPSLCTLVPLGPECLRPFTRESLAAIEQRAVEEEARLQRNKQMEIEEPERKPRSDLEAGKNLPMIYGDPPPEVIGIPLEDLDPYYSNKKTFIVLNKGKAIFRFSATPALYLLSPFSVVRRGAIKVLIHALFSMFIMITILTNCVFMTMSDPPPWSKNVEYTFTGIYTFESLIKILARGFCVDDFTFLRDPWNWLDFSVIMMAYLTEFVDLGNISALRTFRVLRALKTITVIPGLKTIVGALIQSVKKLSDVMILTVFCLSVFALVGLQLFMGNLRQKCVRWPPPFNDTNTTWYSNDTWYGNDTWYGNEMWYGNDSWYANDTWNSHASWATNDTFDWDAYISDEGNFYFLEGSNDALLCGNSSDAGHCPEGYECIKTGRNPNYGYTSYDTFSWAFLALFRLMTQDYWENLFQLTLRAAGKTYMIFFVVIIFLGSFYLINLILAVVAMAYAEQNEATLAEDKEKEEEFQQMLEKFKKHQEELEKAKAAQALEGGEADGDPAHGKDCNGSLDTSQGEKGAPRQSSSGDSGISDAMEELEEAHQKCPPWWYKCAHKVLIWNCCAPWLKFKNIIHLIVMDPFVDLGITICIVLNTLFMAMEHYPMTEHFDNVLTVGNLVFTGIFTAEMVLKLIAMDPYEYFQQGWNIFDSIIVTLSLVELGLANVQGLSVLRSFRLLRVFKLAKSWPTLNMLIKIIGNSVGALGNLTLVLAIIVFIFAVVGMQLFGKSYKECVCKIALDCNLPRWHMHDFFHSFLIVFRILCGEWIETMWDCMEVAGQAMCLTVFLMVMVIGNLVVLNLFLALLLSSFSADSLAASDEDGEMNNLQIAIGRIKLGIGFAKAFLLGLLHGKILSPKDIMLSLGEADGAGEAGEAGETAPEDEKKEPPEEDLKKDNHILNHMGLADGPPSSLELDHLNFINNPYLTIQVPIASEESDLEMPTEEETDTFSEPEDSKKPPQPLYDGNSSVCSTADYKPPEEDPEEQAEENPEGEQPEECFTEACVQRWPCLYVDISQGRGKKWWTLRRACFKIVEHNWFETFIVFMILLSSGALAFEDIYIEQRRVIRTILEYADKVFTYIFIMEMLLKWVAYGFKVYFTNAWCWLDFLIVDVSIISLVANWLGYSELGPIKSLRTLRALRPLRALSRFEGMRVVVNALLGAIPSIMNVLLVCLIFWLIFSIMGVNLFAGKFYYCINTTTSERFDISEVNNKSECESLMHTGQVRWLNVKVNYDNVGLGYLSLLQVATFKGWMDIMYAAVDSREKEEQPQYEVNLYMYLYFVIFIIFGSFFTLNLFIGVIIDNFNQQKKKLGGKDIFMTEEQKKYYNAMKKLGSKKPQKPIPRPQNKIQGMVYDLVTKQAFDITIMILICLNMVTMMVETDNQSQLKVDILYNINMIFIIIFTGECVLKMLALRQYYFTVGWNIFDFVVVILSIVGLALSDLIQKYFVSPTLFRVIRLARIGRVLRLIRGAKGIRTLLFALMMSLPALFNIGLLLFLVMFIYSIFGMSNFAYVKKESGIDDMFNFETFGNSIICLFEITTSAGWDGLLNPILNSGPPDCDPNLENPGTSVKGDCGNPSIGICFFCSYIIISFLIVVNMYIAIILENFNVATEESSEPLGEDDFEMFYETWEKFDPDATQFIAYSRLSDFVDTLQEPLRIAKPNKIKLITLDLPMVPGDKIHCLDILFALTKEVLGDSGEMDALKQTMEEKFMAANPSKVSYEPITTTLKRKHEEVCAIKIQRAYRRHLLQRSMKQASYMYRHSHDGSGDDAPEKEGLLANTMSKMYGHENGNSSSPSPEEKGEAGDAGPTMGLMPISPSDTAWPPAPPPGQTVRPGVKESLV

For the molecule `CN(CCCc1cc(Cl)ccc1Oc1cc(F)c(S(=O)(=O)Nc2cscn2)cc1Cl)CC(=O)O` [Compound 47, 2-((3-(5-chloro-2-(2-chloro-5-fluoro-4-(N-(thiazol-4-yl)sulfamoyl)phenoxy)phenyl)propyl)(methyl)amino)acetic acid], in experiment [1], the 50% inhibitory concentration (IC50) – broadly, the point on the concentration scale where inhibition reaches its midpoint – was more than 10 µM.
As for `C#CCN(CCCc1cc(Cl)ccc1Oc1cc(F)c(S(=O)(=O)Nc2nccs2)cc1Cl)CCC(=O)O` [Compound 66, 3-((3-(5-chloro-2-(2-chloro-5-fluoro-4-(N-(thiazol-2-yl)sulfamoyl)phenoxy)phenyl)propyl)(prop-2-yn-1-yl)amino)propanoic acid], the half-inhibitory concentration (IC50) in [1] is more than 10 µM.
Turning to `C#CCN(CCCc1cc(Cl)ccc1Oc1cc(F)c(S(=O)(=O)Nc2cscn2)cc1Cl)CC(=O)O` [Compound 61, 2-((3-(5-chloro-2-(2-chloro-5-fluoro-4-(N-(thiazol-4-yl)sulfamoyl)phenoxy)phenyl)propyl)(prop-2-yn-1-yl)amino)acetic acid], in [1], the IC50 was more than 10 µM.
As to `NC(=O)CNCCCc1cc(Cl)ccc1Oc1cc(F)c(S(=O)(=O)Nc2nccs2)cc1Cl` [Compound 63, 2-((3-(5-chloro-2-(2-chloro-5-fluoro-4-(N-(thiazol-2-yl)sulfamoyl)phenoxy)phenyl)propyl)amino)acetamide], the half-inhibitory concentration (IC50) in experiment [1] is more than 10 µM.
As to `C#CCN(CCCc1cc(Cl)ccc1Oc1cc(F)c(S(=O)(=O)Nc2nccs2)cc1Cl)CC(=O)O` [Compound 54, 2-((3-(5-chloro-2-(2-chloro-5-fluoro-4-(N-(thiazol-2-yl)sulfamoyl)phenoxy)phenyl)propyl)(prop-2-yn-1-yl)amino)acetic acid], the half-inhibitory concentration (IC50) in experiment [2] is less than 0.1 µM; in experiment [1], more than 10 µM; in experiment [3] it was less than 0.1 µM.
Turning to `NC(=O)CNCCCc1ccccc1Oc1cc(F)c(S(=O)(=O)Nc2cscn2)cc1Cl` [Compound 60, 2-((3-(2-(2-chloro-5-fluoro-4-(N-(thiazol-4-yl)sulfamoyl)phenoxy)phenyl)propyl)amino)acetamide], in experiment [1], the half-inhibitory concentration (IC50) was more than 10 µM.
The same measure, in the same setting: under `CCCN(CCCc1cc(Cl)ccc1Oc1cc(F)c(S(=O)(=O)Nc2nccs2)cc1Cl)CC(=O)O` [Compound 65, 2-((3-(5-chloro-2-(2-chloro-5-fluoro-4-(N-(thiazol-2-yl)sulfamoyl)phenoxy)phenyl)propyl)(propyl)amino)acetic acid] stands more than 10 µM; under `C=CCN(CCCc1cc(Cl)ccc1Oc1cc(F)c(S(=O)(=O)Nc2nccs2)cc1Cl)CC(=O)O` [Compound 62, 2-(allyl(3-(5-chloro-2-(2-chloro-5-fluoro-4-(N-(thiazol-2-yl)sulfamoyl)phenoxy)phenyl)propyl)amino)acetic acid], more than 10 µM.
Take `CS(=O)(=O)CCNCCCc1cc(Cl)ccc1Oc1cc(F)c(S(=O)(=O)Nc2nccs2)cc1Cl` [Compound 59, 5-chloro-4-(4-chloro-2-(3-((2-(methylsulfonyl)ethyl)amino)propyl)phenoxy)-2-fluoro-N-(thiazol-2-yl)benzenesulfonamide]: the IC50 in [1] was more than 10 µM.
For the molecule `O=C(O)CCNC(=O)c1cc(-c2cc(Cl)ccc2Oc2cc(F)c(S(=O)(=O)Nc3ncns3)cc2Cl)ccn1` [Compound 1, 3-(4-(2-(4-(N-(1,2,4-thiadiazol-5-yl)sulfamoyl)-2-chloro-5-fluorophenoxy)-5-chlorophenyl)picolinamido)propanoic acid], the IC50 was more than 3 µM in experiment [4], more than 10 µM in experiment [5], more than 10 µM in experiment [6] and more than 10 µM in experiment [7].
Regarding `NC(=O)CNCCCc1cc(Cl)ccc1Oc1cc(F)c(S(=O)(=O)Nc2cscn2)cc1Cl` [Compound 49, 2-((3-(5-chloro-2-(2-chloro-5-fluoro-4-(N-(thiazol-4-yl)sulfamoyl)phenoxy)phenyl)propyl)amino)acetamide], the IC50 in [8] is more than 10 µM; in experiment [4], more than 3 µM; in experiment [5], more than 10 µM; in experiment [7] it was more than 10 µM. Moreover, the “general appearance and/or health” value in experiment [9] (60 mg/kg/day for 9 days, after treatment stopped on day 9) is reported as “improvements in general appearance and/or health”. In addition, the “food intake compared to the vehicle control group” value in experiment [9] (setting [10]) is listed as “significantly reduced”. For the same molecule, the “glucose level compared to the vehicle control group” value in experiment [9] (setting [10]) was “significantly reduced”. Also, in [9] (setting [10]), the “water intake compared to the vehicle control group” value is “significantly reduced”.
For the molecule `O=C(O)CCNCCCc1cc(Cl)ccc1Oc1cc(F)c(S(=O)(=O)Nc2nccs2)cc1F` [Compound 43, 3-((3-(5-chloro-2-(2,5-difluoro-4-(N-(thiazol-2-yl)sulfamoyl)phenoxy)phenyl)propyl)amino)propanoic acid], the 50% inhibitory concentration (IC50) in experiment [1] is more than 10 µM.

(Values after patent US20170304306A1, “SELECTIVE NaV1.7 INHIBITORS FOR THE TREATMENT OF DIABETES” (CHROMOCELL CORPORATION, priority 2014, published 2017).)
